Laboratory results taken from the supplement of paper PMC10307832.

What was measured:
Experiment in all cases: relative viability (nuclei count vs DMSO), 5 days (fraction); higher = more cells survive
[1] = compound: COC1=CC=C(C=C1)CN2C=CC3=C2C=C(C=C3)C(=O)NO + COc1cc2c(Oc3ccc(NC(=O)C4(C(=O)Nc5ccc(F)cc5)CC4)cc3F)ccnc2cc1OCCCN1CCOCC1 [Foretinib] (partner 0.25 µM)
Summary of the method: (§1)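 A single step with final 0.05% Triton X-100, 1% formaldehyde and 1 ug/ml Hoechst fixed the cells and stained nuclei 5 days after treatment. Lung cancer cell lines in 1536-well plates had been treated by pin tool the day after seeding with one drug alone or a fixed anchor-drug dose plus five library-drug doses (not always all listed) in √10 steps, and nuclei were counted on 4× images. Relative viability is the ratio of nuclei in treated wells to nuclei in vehicle wells, taken as the median of duplicate plates.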

[2] = compound: COC1=CC=C(C=C1)CN2C=CC3=C2C=C(C=C3)C(=O)NO + C[C@@H](Oc1cc(-c2cnn(C3CCNCC3)c2)cnc1N)c1c(Cl)ccc(F)c1Cl [Crizotinib] (partner 1 µM)
Summary of the method: as §1

[3] = compound: COC1=CC=C(C=C1)CN2C=CC3=C2C=C(C=C3)C(=O)NO + C[C@]1(O)C[C@@H](c2nc(-c3ccc4ccc(-c5ccccc5)nc4c3)c3c(N)nccn32)C1 [Linsitinib] (partner 1 µM)
Summary of the method: as §1

[4] = compound: C[C@]1(c2nc3c(C(N)=O)cccc3[nH]2)CCCN1 [Veliparib] + CS(=O)(=O)N1CCN(Cc2cc3nc(-c4cccc5[nH]ncc45)nc(N4CCOCC4)c3s2)CC1 [Pictilisib] (partner 1 µM)
Summary of the method: as §1

Cell Line	relative viability ([1]; first compound 0.08 µM)	relative viability ([1]; first compound 0.253 µM)	relative viability ([1]; first compound 0.8 µM)	relative viability ([1]; first compound 2.53 µM)	relative viability ([1]; first compound 8 µM)	relative viability ([2]; first compound 0.08 µM)	relative viability ([2]; first compound 0.253 µM)	relative viability ([2]; first compound 0.8 µM)	relative viability ([2]; first compound 2.53 µM)	relative viability ([2]; first compound 8 µM)	relative viability ([3]; first compound 0.08 µM)	relative viability ([3]; first compound 0.253 µM)	relative viability ([3]; first compound 0.8 µM)	relative viability ([3]; first compound 2.53 µM)	relative viability ([3]; first compound 8 µM)	relative viability ([4]; first compound 0.02 µM)	relative viability ([4]; first compound 0.06325 µM)	relative viability ([4]; first compound 0.2 µM)	relative viability ([4]; first compound 0.6325 µM)	relative viability ([4]; first compound 2 µM)
NCI-H1993	0.552	0.818	0.836	0.892	0.777	0.698	0.919	0.803	0.901	0.881	0.738	0.783	0.785	0.759	0.741	0.772	0.826	0.822	0.807	0.805
UMC-11	–	1.21	1.02	1.05	1	0.269	0.704	0.564	0.554	0.56	0.891	0.974	1.06	0.959	0.938	0.779	0.891	0.817	0.876	0.883
NCI-H1437	1.05	1.21	1.22	1.34	1.27	0.661	0.961	0.993	0.989	0.939	0.847	1.1	1.01	1	1.13	0.419	0.512	0.552	0.378	0.362
NCI-H1563	0.762	0.897	0.888	0.928	0.892	0.718	0.847	0.957	0.921	0.943	1.1	1.18	1.26	1.18	1.12	0.642	0.635	0.625	0.675	0.595
LU99A	–	0.904	0.841	0.865	0.836	–	0.573	0.541	0.562	0.553	–	0.581	0.533	0.552	0.569	0.349	0.279	0.296	0.278	0.323
NCI-H1755	0.892	1.01	0.915	0.941	0.946	0.789	0.852	0.858	0.928	0.879	0.955	0.987	1	1.04	1.02	0.403	0.415	0.479	0.434	0.432
LXF-289	–	0.994	1.01	1.02	1.03	0.317	0.827	0.827	0.803	0.793	0.456	0.951	0.998	0.986	0.959	0.78	0.778	0.768	0.746	0.755
NCI-H460	0.53	1.06	0.973	0.974	1.02	0.774	0.959	0.846	0.882	0.917	0.553	0.879	0.714	0.705	0.776	0.349	0.335	0.325	0.347	0.377
